Molecular target: T1, FLK-1 receptor (Mus musculus, UniProt P35918)
T1 construct: expressed in transfected cells; host or cells: NIH3T3 C7#3
Assay: FLK-1 ELISA (kinase activity of the FLK-1 receptor in FLK-1/NIH3T3 cells, VEGF stimulated)
Assay type: cell-based
In short: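 An ELISA using affinity-purified rabbit anti-FLK-1 antiserum on anti-rabbit IgG-coated plates measured VEGF-stimulated FLK-1 kinase activity. NIH3T3 C7#3 cells carrying FLK-1 were serum-starved (0.1% FBS) overnight, then exposed to compound (final 1:200 dilution, 0.5% DMSO) for two hours at 37 °C.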

T1 sequence (P35918 20-1345): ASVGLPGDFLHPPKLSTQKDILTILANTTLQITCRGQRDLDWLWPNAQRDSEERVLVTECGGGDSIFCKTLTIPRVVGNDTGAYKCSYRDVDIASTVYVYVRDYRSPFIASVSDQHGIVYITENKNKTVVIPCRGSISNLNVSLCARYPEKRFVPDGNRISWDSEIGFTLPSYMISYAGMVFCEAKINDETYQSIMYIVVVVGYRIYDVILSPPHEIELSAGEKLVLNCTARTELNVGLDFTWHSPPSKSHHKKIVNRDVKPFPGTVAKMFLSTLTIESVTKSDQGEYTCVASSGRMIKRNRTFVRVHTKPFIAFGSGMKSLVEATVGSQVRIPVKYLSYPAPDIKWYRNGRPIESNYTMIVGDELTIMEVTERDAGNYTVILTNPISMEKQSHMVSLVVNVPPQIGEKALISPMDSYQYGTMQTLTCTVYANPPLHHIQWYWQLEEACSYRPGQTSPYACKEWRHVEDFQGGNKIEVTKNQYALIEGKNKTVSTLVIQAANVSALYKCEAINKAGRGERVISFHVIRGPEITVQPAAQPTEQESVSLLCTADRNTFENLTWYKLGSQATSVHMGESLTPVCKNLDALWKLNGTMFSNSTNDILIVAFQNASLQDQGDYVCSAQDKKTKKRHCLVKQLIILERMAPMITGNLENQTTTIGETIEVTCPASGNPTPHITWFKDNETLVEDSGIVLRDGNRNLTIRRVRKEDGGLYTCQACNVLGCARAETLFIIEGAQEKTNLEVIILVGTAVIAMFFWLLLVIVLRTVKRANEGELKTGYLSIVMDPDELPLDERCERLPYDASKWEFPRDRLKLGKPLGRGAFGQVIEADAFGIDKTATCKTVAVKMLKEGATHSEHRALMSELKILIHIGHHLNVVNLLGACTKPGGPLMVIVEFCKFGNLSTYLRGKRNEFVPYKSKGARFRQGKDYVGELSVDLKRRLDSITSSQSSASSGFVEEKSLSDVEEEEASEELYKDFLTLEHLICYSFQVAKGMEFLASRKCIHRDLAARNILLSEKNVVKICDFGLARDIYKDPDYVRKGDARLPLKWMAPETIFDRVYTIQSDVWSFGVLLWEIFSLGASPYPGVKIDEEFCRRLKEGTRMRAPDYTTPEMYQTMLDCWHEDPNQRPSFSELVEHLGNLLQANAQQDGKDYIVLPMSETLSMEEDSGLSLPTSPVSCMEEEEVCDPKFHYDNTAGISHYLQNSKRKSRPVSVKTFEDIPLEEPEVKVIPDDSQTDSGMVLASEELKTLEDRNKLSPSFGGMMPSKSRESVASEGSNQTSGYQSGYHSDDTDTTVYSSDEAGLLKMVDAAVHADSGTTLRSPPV

Compound: CC(C)c1cc(C=C2C(=O)Nc3ccc(I)cc32)cc(C(C)C)c1O [10724/B06]
- Fik Kinase %Inhibition: 13.4%

Reference: patent publication EP1247803A2, “Indolinone compounds suitable for modulation of protein kinases” (Sugen, Inc., priority 1996, dated 1998)
